Experimental data reported in ChEMBL document CHEMBL1201862, “PubChem BioAssay data set” (2004).
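Results reflect a 48-hour exposure of cells in 96-well plates to compound at five concentrations. GI50 marks 50% less growth.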 Active and inactive are the calls of the source. No stated cut-off is given here; in the data, active = GI50 up to about 1.1 µM and inactive = higher.

Experiments:
Experiment in all cases: DTP human tumour cell line panel, 48 h
NCI/ADR-RES = system: NCI/ADR-RES
Hs-578T = system: Hs-578T
NCI-H226 = system: NCI-H226
UO-31 = system: UO-31
NCI-H522 = system: NCI-H522
SN12C = system: SN12C
MDA-MB-231 = system: MDA-MB-231
SK-MEL-5 = system: SK-MEL-5
SF-539 = system: SF-539
NCI-H23 = system: NCI-H23
A498 = system: A498
HCT-116 = system: HCT-116
CAKI-1 = system: CAKI-1
HCC 2998 = system: HCC 2998
COLO 205 = system: COLO 205
SW-620 = system: SW-620
TK-10 = system: TK-10
ACHN = system: ACHN
K562 = system: K562
RPMI-8226 = system: RPMI-8226

Measured: GI50

CCn1c(=O)c2c3cc(OC(C)=O)ccc3oc2c2ccc(OC(C)=O)cc21
inactive: NCI/ADR-RES 36.9 µM | Hs-578T 11.1 µM | NCI-H226 34.4 µM | UO-31 26.6 µM | NCI-H522 39.1 µM | SN12C 43.6 µM | MDA-MB-231 48.4 µM | SK-MEL-5 33 µM | SF-539 27.5 µM | NCI-H23 37.9 µM | A498 24.8 µM | HCT-116 32.2 µM | CAKI-1 40 µM | HCC 2998 23.4 µM | COLO 205 20.7 µM | SW-620 38.4 µM | TK-10 29.5 µM | ACHN 24.8 µM | K562 33.8 µM

C[C@]12CC[C@H]3[C@@H](CCC4=C(Br)C(=O)C=C[C@@]43O)[C@@H]1CCC2=O
inactive: NCI/ADR-RES 27.2 µM | Hs-578T 62.8 µM | NCI-H226 > 100 µM | UO-31 42.2 µM | NCI-H522 13 µM | SN12C 33.7 µM | MDA-MB-231 82 µM | SK-MEL-5 28.2 µM | SF-539 53.7 µM | NCI-H23 17.8 µM | A498 49.2 µM | HCT-116 26.4 µM | CAKI-1 31.6 µM | RPMI-8226 33.7 µM | COLO 205 61 µM | SW-620 26.8 µM | TK-10 36.6 µM | ACHN 40.6 µM | K562 32.7 µM

COC1=C(OC)C(=O)C(Cc2c(-c3ccccc3)nc3sc(Cl)cn23)=C(C)C1=O
inactive: NCI/ADR-RES 17.9 µM | Hs-578T 18.1 µM | UO-31 15.8 µM | NCI-H522 13.6 µM | SN12C 16.4 µM | MDA-MB-231 11 µM | SK-MEL-5 15.2 µM | SF-539 17.1 µM | NCI-H23 17.8 µM | A498 20.2 µM | HCT-116 16.4 µM | CAKI-1 21 µM | RPMI-8226 13.5 µM | HCC 2998 24.4 µM | COLO 205 18.7 µM | SW-620 23.3 µM | TK-10 20 µM | ACHN 16 µM | K562 23.9 µM

COC(=O)c1c2c(cc3c1CC1(Cc4cc5c(c(C=O)c4C1)CCC5)C3)CCC2 (centres undefined)
inactive: NCI/ADR-RES 40.5 µM | Hs-578T 92.7 µM | UO-31 25.1 µM | NCI-H522 17.3 µM | MDA-MB-231 28.4 µM | SK-MEL-5 16 µM | SF-539 75.5 µM | NCI-H23 47.8 µM | A498 33.6 µM | HCT-116 21.2 µM | CAKI-1 > 100 µM | RPMI-8226 55.1 µM | HCC 2998 24.7 µM | SW-620 53.2 µM | TK-10 98.4 µM | ACHN 32.9 µM | K562 13.4 µM

O=C(O)CCN1C(=S)CSC1=S
inactive: NCI/ADR-RES > 100 µM | Hs-578T > 100 µM | NCI-H226 > 100 µM | NCI-H522 67.8 µM | SN12C > 100 µM | MDA-MB-231 > 100 µM | SK-MEL-5 > 100 µM | SF-539 > 100 µM | NCI-H23 > 100 µM | A498 > 100 µM | HCT-116 > 100 µM | CAKI-1 > 100 µM | RPMI-8226 54.7 µM | COLO 205 > 100 µM | SW-620 > 100 µM | TK-10 > 100 µM | ACHN > 100 µM | K562 78 µM

O=S1(=O)N=C(SCc2c[nH]c3ccccc23)N(c2ccccc2)c2ccncc21
inactive: NCI/ADR-RES > 100 µM | Hs-578T > 100 µM | NCI-H226 97.7 µM | UO-31 18.5 µM | NCI-H522 37.5 µM | SN12C 74.6 µM | MDA-MB-231 > 100 µM | SK-MEL-5 > 100 µM | SF-539 22.8 µM | NCI-H23 > 100 µM | A498 27 µM | HCT-116 > 100 µM | CAKI-1 67.5 µM | HCC 2998 > 100 µM | COLO 205 > 100 µM | SW-620 > 100 µM | TK-10 35.6 µM | ACHN 65.3 µM | K562 > 100 µM

O=C(N/N=C(COc1cccc(Cl)c1)\N=C\c1ccncc1)c1ccncc1
inactive: NCI/ADR-RES > 100 µM | Hs-578T > 100 µM | NCI-H226 > 100 µM | NCI-H522 > 100 µM | SN12C > 100 µM | MDA-MB-231 > 100 µM | SF-539 > 100 µM | NCI-H23 > 100 µM | A498 68.9 µM | HCT-116 > 100 µM | CAKI-1 > 100 µM | RPMI-8226 > 100 µM | HCC 2998 > 100 µM | COLO 205 > 100 µM | SW-620 > 100 µM | TK-10 > 100 µM | ACHN > 100 µM | K562 > 100 µM

CC1=NNC(=O)C1C1CC(c2c[nH]c3ccccc23)=NNC1=S (centres undefined)
inactive: NCI/ADR-RES > 100 µM | Hs-578T > 100 µM | NCI-H226 > 100 µM | UO-31 30.6 µM | NCI-H522 > 100 µM | SN12C > 100 µM | MDA-MB-231 > 100 µM | SK-MEL-5 > 100 µM | SF-539 > 100 µM | NCI-H23 64 µM | A498 > 100 µM | HCT-116 > 100 µM | CAKI-1 > 100 µM | RPMI-8226 36.2 µM | COLO 205 72.1 µM | SW-620 > 100 µM | TK-10 > 100 µM | ACHN > 100 µM | K562 48.5 µM

CCC1(CC)C(=O)OC(=O)C1(CC)CC
inactive: NCI/ADR-RES > 100 µM | Hs-578T 15.2 µM | UO-31 > 100 µM | NCI-H522 > 100 µM | MDA-MB-231 > 100 µM | SK-MEL-5 > 100 µM | SF-539 > 100 µM | NCI-H23 > 100 µM | A498 > 100 µM | HCT-116 > 100 µM | CAKI-1 > 100 µM | RPMI-8226 > 100 µM | HCC 2998 > 100 µM | COLO 205 > 100 µM | SW-620 > 100 µM | TK-10 > 100 µM | ACHN > 100 µM | K562 > 100 µM

S=C1NCCN1C(=S)Nc1ccccc1
inactive: NCI/ADR-RES > 100 µM | Hs-578T 84.1 µM | NCI-H226 51.4 µM | UO-31 36.7 µM | NCI-H522 60.8 µM | SN12C > 100 µM | MDA-MB-231 > 100 µM | SK-MEL-5 > 100 µM | SF-539 46.3 µM | NCI-H23 60.4 µM | A498 32.4 µM | HCT-116 91.2 µM | CAKI-1 46.8 µM | HCC 2998 65.5 µM | COLO 205 71.6 µM | SW-620 > 100 µM | TK-10 95.9 µM | ACHN > 100 µM | K562 74.6 µM

Cc1ccc(/C(=C\C(=O)C(=O)NC23CC4CC(CC(C4)C2)C3)Sc2ccccc2)cc1
inactive: NCI/ADR-RES > 10 µM | Hs-578T > 10 µM | NCI-H226 > 10 µM | UO-31 > 10 µM | NCI-H522 > 10 µM | SN12C > 10 µM | MDA-MB-231 > 10 µM | SK-MEL-5 > 10 µM | SF-539 > 10 µM | NCI-H23 > 10 µM | A498 > 10 µM | CAKI-1 > 10 µM | RPMI-8226 9.02 µM | HCC 2998 > 10 µM | COLO 205 3.5 µM | SW-620 > 10 µM | TK-10 > 10 µM | ACHN > 10 µM | K562 4.76 µM
